# Counter-ions that a name gives are not always drawn.
# How the values were obtained:
# [1] = test system: Northern house mosquitoes (Culex pipiens); assay: Long-term spatial repellency, static air repellency chamber, filter papers air-dried 5 hours; type: in vivo; details: air-dried 5 hours; for pest or weed control at 0.5 %: Culex pipiens, 1 mL of 0.5% solution in acetone
# Protocol: (§1) Northern house mosquitoes (Culex pipiens), a primary carrier of West Nile virus in eastern North America, were obtained from an established colony in the Medical Entomology Laboratory in the Department of Entomology at Iowa State University of Science and Technology, Ames Iowa. Mosquito rearing was performed by established protocols that are maintained by the Medical Entomology Laboratory. Repellency bioassays were performed with adult female mosquitoes that were 5-7 days post-emergent. […] Mosquitoes, prior to testing, were held at 27° C., 80% relative humidity, and on a 16:8 hr light:dark photoperiod.
# (§2) Repellency bioassays were performed using a static air repellency chamber, which has been described in various publications by the Pesticide Toxicology Laboratory at Iowa State University of Science and Technology, Ames, Iowa Briefly, a 9-cm×60-cm glass tube was used to monitor the distribution of mosquitoes at 15 min, 30 min, 60 min, 90 min, 120 min, and 150 min after introducing mosquitoes into the static air repellency chamber. Treated filter papers were treated with 1 mL of 0.5% solution in acetone of the terpenoid analogs created in the lab and were exposed to ambient air for 5 hours before they were introduced into the spatial chamber for testing. This is a slight modification of the method described in Example 2, so as to evaluate the residual repellent character of these compounds on a treated surface after 5 hours. One end of the spatial chamber contained a treated filter paper, whereas the other (untreated) end of the spatial chamber was not treated with compound. Controls contained filter papers treated with acetone, the solvent used to make the 0.5% solutions. Each end of the repellency chamber was secured with a 100-mm Petri dish using celluloid tape. After securing the petri dishes with corresponding treated or untreated filter papers to the spatial chamber, mosquitoes were anesthetized with carbon dioxide, and approximately 20 female mosquitoes were placed into each repellency chamber for one replicate. The opening of the spatial repellency chamber was secured with celluloid tape to prevent their escape. Chambers were oriented in opposite directions from the previous replicate to account for any directional effect. Four replicates were performed for data analysis for both the control and treatment groups.
# Data for spatial repellency, the percentage repellency, is reported at each of the respective time points in the figures and tables mentioned below in this disclosure. The percentage spatial repellency is the examination of the distribution of mosquitoes and is calculated using the following equation: […]
# [2] = test system: Northern house mosquitoes (Culex pipiens); assay: Short-term spatial repellency, static air repellency chamber; type: in vivo; details: for pest or weed control at 0.5 %: Culex pipiens, filter paper, air-dried 15 min
# Protocol: as §1, with “that emerged” for “that were”, “days previously.” for “days post-emergent.”
# as §2, with “Treated filter papers were treated with 1 mL of 0.5% solution in acetone of the terpenoid analogs created in the lab and were exposed to ambient air for 5 hours before they were introduced into the spatial chamber for testing. This is a slight modification of the method described in Example 2, so as to evaluate the residual repellent character of these compounds on a treated surface after 5 hours.” left out
# Data for spatial repellency, the percentage repellency, is reported at each of the respective time points in the figures and tables mentioned below. The percentage spatial repellency is the examination of the distribution of mosquitoes and is calculated using the following equation: […]
# [3] = 0.25 h, 15 min, read-out: Long-term Percentage repellency 15 min
# [4] = 1.5 h, 90 min, read-out: Long-term Percentage repellency 90 min
# [5] = 2.5 h, 150 min, read-out: Long-term Percentage repellency 150 min
# [6] = 1 mL of 0.5% solution in acetone
# [7] = 0.25 h, 1 mL of 0.5% solution in acetone, 15 min after introduction, read-out: Short-term Percentage repellency 15 min
# [8] = 1.5 h, 1 mL of 0.5% solution in acetone, 90 min, read-out: Short-term Percentage repellency 90 min
# [9] = 2.5 h, 1 mL of 0.5% solution in acetone, 150 min, read-out: Short-term Percentage repellency 150 min
Compound,"Long-term repellency, in words ([1]; 0.5% solution)","pest or weed control at 0.5 % [1, 3] [%]","pest or weed control at 0.5 % [1, 4] [%]","pest or weed control at 0.5 % [1, 5] [%]","Short-term spatial repellency, in words [2, 6]","Short-term percentage repellency 30 min [2, 6] [%]","Short-term percentage repellency 120 min ([2]; 1 mL of 0.5% solution in acetone, 120 minutes) [%]","pest or weed control at 0.5 % [2, 7] [%]","pest or weed control at 0.5 % [2, 8] [%]","pest or weed control at 0.5 % [2, 9] [%]","Long-term percentage repellency 60 min ([1]; 0.5% solution, 60 minutes) [%]","Short-term repellency at low concentration, in words ([2]; filter paper treated with 0.1%, FIG. 6)"
"CC1CCC(C(C)C)C(OC(=O)C2CC2)C1 (centres unmarked) [Compound 1033B, menthyl cyclopropanecarboxylate]",much greater than DEET,65,71.7,82.5,very effective spatial repellent,47.5,95,15,95,92.5,,
"CC(C)=CCCC(C)CCOC(=O)CC(C)C (centres unmarked) [Compound 1034B, citronellyl isovalerate]",,30,30,32.5,,,,17.5,77.5,82.5,,
"CC(C)=CCCC(C)CCOC(=O)C(C)(C)C (centres unmarked) [Compound 1036A, citronellyl pivalate]",,27.5,17.5,20,,,,25,90,92.5,,
"CC(C)=CCCC(C)CC(=O)OCCO (centres unmarked) [Compound 1052S3, 2-hydroxyethyl citronellate]",,37.5,65,75,,,,,,,,
"Cc1ccc(C(C)C)c(OC(=O)C2CC2)c1 [Compound 1055A, thymol cyclopropanecarboxylate]",,0,32.5,52.5,very effective spatial repellent,58,,-10,87.5,95,,
"Cc1ccc(C(C)C)c(OC(=O)CC(C)C)c1 [Compound 1055B, thymyl isovalerate]",,0,22.5,27.5,,,,12.5,65,77.5,,
"C#CCOC(=O)CC(C)CCC=C(C)C (centres unmarked) [Compound 1060D, propargyl citronellate]",,15,62.5,77.5,,,,60,72.5,70,,
"Cc1ccc(C(C)C)c(OC=O)c1 [Compound 1107A, thymyl formate]",,25,17.5,22.5,,,,35,80,75,,
"Cc1ccc(C(C)C)cc1OC=O [Compound 1107B, carvacryl formate]",,30,37.5,42.5,,,,,,,,
"Cc1ccc(C(C)C)c(OC(=O)C(C)(C)F)c1 [Compound 1121A, thymyl 2-fluoroisobutyrate]",,22.5,50,65,,,,77.5,97.5,97.5,,
"CC(C)=CCC/C(C)=C/C(=O)OCC1CC1 [Compound 2020, cyclopropylmethyl geranate]",,40,45,40,,,,,,,,
"CC(C)=CCC/C(C)=C/COC(=O)C1CC1 [Compound 2023A, geranyl cyclopropanecarboxylate]",much greater than DEET,45,42.5,45,,,,45,42.5,45,47.5,
"CC(C)=CCC/C(C)=C\COC(=O)C1CC1 [Compound 2023B, neryl cyclopropanecarboxylate]",,10,52.5,60,,,,10,52.5,60,,
"C=C(C)C1CC=C(COC(=O)C2CCC2)CC1 (centres unmarked) [Compound 2033, perillyl cyclobutanecarboxylate]",,27.5,,,,,,,,,,
"O=C(OC/C=C/c1ccccc1)C1CCC1 [Compound 2039, cinnamyl cyclobutanecarboxylate]",,40,57.5,60,,,,30,,,,
"Cc1ccc(C(C)C)c(OC(=O)C2CCCCC2)c1 [Compound 2085, thymyl cyclohexanecarboxylate]",,17.5,35,50,,,,17.5,35,50,,
"CC(C)=CCCC(C)CCOC(=O)C1(C)CCC1 (centres unmarked) [Compound 2106, citronellyl 1-methylcyclobutanecarboxylate]",,15,10,15,,,,30,60,67.5,,
"CC(C)=CCCC(C)CCOC(=O)C1CCCC1 (centres unmarked) [Compound 2119, citronellyl cyclopentanecarboxylate]",,20,55,45,,,,-1.25,33.8,52.5,,
"C=CC(C)(C)OC(=O)CC(C)CCC=C(C)C (centres unmarked) [Compound 2170, tert-prenyl citronellate]",,2.5,7.5,-2.5,,,,80,92.5,82.5,,
"CC(=O)CCC(=O)OCCC(C)CCC=C(C)C (centres unmarked) [Compound 2183, citronellyl levulinate]",,35,45,55,,,,35,45,55,,
"CC(C)=CCCC(C)CCOC(=O)c1ccco1 (centres unmarked) [Compound 2186, citronellyl 2-furoate]",,25,42.5,40,,,,,,,,significant levels of repellency

# From patent publication US11485701B2, “Insect repellent compounds and compositions, and methods thereof” (Iowa State University Research Foundation, Inc., priority 2016, dated 2022)
